Reference: patent US9051612B2, “Compositions and methods for nucleotide sequencing” (Illumina, Inc., priority 2006, dated 2015)

Molecular target: T1, calf intestinal alkaline phosphatase (Bos taurus, UniProt P19111)
T1 construct: purchased USB
Assay: Enzymatic removal of 2′ phosphate blocking group with alkaline phosphatase
Assay type: biochemical
Settings: aqueous buffer, room temperature

T1 sequence (P19111 20-506): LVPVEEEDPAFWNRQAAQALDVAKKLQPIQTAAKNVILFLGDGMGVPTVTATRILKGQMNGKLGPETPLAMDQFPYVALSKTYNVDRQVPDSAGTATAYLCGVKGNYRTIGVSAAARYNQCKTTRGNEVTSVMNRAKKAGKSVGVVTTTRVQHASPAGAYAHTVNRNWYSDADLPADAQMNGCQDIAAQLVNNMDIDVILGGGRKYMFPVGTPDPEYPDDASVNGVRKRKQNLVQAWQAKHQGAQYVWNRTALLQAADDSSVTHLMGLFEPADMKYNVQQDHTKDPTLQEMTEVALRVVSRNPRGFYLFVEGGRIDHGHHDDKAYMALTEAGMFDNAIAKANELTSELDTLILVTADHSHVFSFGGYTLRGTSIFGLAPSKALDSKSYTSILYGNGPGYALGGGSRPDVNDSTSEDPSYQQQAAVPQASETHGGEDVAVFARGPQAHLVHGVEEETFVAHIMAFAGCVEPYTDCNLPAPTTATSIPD

O=c1ccn(C2OC(COP(=O)(O)OP(=O)(O)OP(=O)(O)O)C(O)C2OP(=O)(O)O)c(=O)[nH]1 (stereo not shown) [2′ reversible terminator, 2′-phosphate UTP]
removal of the phosphate blocking group: can be quantitatively removed using alkaline phosphatase in less than one minute
